Experimental data from patent publication US20110039721A1, “METHOD FOR PREDICTION ABOUT CARCINOGENICITY OF SUBSTANCE IN RODENT” (Chemicals Evaluation and Research Institute, priority 2007, published 2011).
Like-named read-outs stand apart in the source and are kept apart here.

Legend:
[1] = classification of the substance (M+/M−); cited from earlier work
liver = settings: cited from earlier work
[2] = tested on: mRNA expressed from the genes (A) to (D) in rat liver; assay: Behavior of genes (mRNA expression level, oligo-DNA microarray) in rat liver after 28-day oral administration; type: in vivo; settings: for Behavior of gene caused by administration of chemical substance, Gene No. 4846 / Behavior of gene caused by administration of chemical substance, Gene No. 2026 / Behavior of gene caused by administration of chemical substance, Gene No. 4218 / Behavior of gene caused by administration of chemical substance, Gene No. 6182 / Behavior of gene caused by administration of chemical substance, Gene No. 5600: gene group (A); for Behavior of gene caused by administration of chemical substance, Gene No. 4846: Unigene No. Rn.144554; for Behavior of gene caused by administration of chemical substance, Gene No. 2026 / Behavior of gene caused by administration of chemical substance, Gene No. 4218: Unigene No. Rn.167075; for Behavior of gene caused by administration of chemical substance, Gene No. 6182: Unigene No. Rn.5834; for Behavior of gene caused by administration of chemical substance, Gene No. 5600: Unigene No. Rn.9836; for Behavior of gene caused by administration of chemical substance, Gene No. 1494 / Behavior of gene caused by administration of chemical substance, Gene No. 2045 / Behavior of gene caused by administration of chemical substance, Gene No. 2203: gene group (B); for Behavior of gene caused by administration of chemical substance, Gene No. 1494: Unigene No. Rn.1430; for Behavior of gene caused by administration of chemical substance, Gene No. 2045: Unigene No. Rn.19329; for Behavior of gene caused by administration of chemical substance, Gene No. 2203: Unigene No. Rn.21240; for Behavior of gene caused by administration of chemical substance, Gene No. 533 / Behavior of gene caused by administration of chemical substance, Gene No. 725 / Behavior of gene caused by administration of chemical substance, Gene No. 1163 / Behavior of gene caused by administration of chemical substance, Gene No. 4973 / Behavior of gene caused by administration of chemical substance, Gene No. 4095 / Behavior of gene caused by administration of chemical substance, Gene No. 1334 / Behavior of gene caused by administration of chemical substance, Gene No. 6620 / Behavior of gene caused by administration of chemical substance, Gene No. 6303 / Behavior of gene caused by administration of chemical substance, Gene No. 5878 / Behavior of gene caused by administration of chemical substance, Gene No. 1131 / Behavior of gene caused by administration of chemical substance, Gene No. 1562 / Behavior of gene caused by administration of chemical substance, Gene No. 1741 / Behavior of gene caused by administration of chemical substance, Gene No. 893 / Behavior of gene caused by administration of chemical substance, Gene No. 6026 / Behavior of gene caused by administration of chemical substance, Gene No. 154 / Behavior of gene caused by administration of chemical substance, Gene No. 1993 / Behavior of gene caused by administration of chemical substance, Gene No. 813 / Behavior of gene caused by administration of chemical substance, Gene No. 2494 / Behavior of gene caused by administration of chemical substance, Gene No. 2546 / Behavior of gene caused by administration of chemical substance, Gene No. 3776 / Behavior of gene caused by administration of chemical substance, Gene No. 3929 / Behavior of gene caused by administration of chemical substance, Gene No. 1119 / Behavior of gene caused by administration of chemical substance, Gene No. 6742 / Behavior of gene caused by administration of chemical substance, Gene No. 5634: gene group (C); for Behavior of gene caused by administration of chemical substance, Gene No. 533: Unigene No. Rn.106184; for Behavior of gene caused by administration of chemical substance, Gene No. 725: Unigene No. Rn.108075; for Behavior of gene caused by administration of chemical substance, Gene No. 1163: Unigene No. Rn.11766; for Behavior of gene caused by administration of chemical substance, Gene No. 4973: Unigene No. Rn.118529; for Behavior of gene caused by administration of chemical substance, Gene No. 4095: Unigene No. Rn.119024; for Behavior of gene caused by administration of chemical substance, Gene No. 1334 / Behavior of gene caused by administration of chemical substance, Gene No. 6620: Unigene No. Rn.120914; for Behavior of gene caused by administration of chemical substance, Gene No. 6303: Unigene No. Rn.123063; for Behavior of gene caused by administration of chemical substance, Gene No. 5878: Unigene No. Rn.143213; for Behavior of gene caused by administration of chemical substance, Gene No. 1131: Unigene No. Rn.144946; for Behavior of gene caused by administration of chemical substance, Gene No. 1562: Unigene No. Rn.14744; for Behavior of gene caused by administration of chemical substance, Gene No. 1741: Unigene No. Rn.1647; for Behavior of gene caused by administration of chemical substance, Gene No. 893: Unigene No. Rn.164817; for Behavior of gene caused by administration of chemical substance, Gene No. 6026: Unigene No. Rn.167685; for Behavior of gene caused by administration of chemical substance, Gene No. 154: Unigene No. Rn.185941; for Behavior of gene caused by administration of chemical substance, Gene No. 1993: Unigene No. Rn.18728; for Behavior of gene caused by administration of chemical substance, Gene No. 813: Unigene No. Rn.201760; for Behavior of gene caused by administration of chemical substance, Gene No. 2494: Unigene No. Rn.23969; for Behavior of gene caused by administration of chemical substance, Gene No. 2546: Unigene No. Rn.24561; for Behavior of gene caused by administration of chemical substance, Gene No. 3776: Unigene No. Rn.43232; for Behavior of gene caused by administration of chemical substance, Gene No. 3929: Unigene No. Rn.4620; for Behavior of gene caused by administration of chemical substance, Gene No. 1119: Unigene No. Rn.9757; for Behavior of gene caused by administration of chemical substance, Gene No. 6742: Unigene No. Rn.9779; for Behavior of gene caused by administration of chemical substance, Gene No. 5634: Unigene No. Rn.9862; for Behavior of gene caused by administration of chemical substance, Gene No. 5726: gene group (D), Unigene No. Rn.9939
Method in brief: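 Male F344 SPF rats, 5 weeks old, four per group, received carcinogens, non-carcinogens or solvent vehicle by oral gavage once daily for 28 days. Liver total RNA was then extracted. Changes of ≥1.5-fold or ≤1/1.5 versus vehicle control, in a consistent direction across carcinogens, counted as significant.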

rodent = settings: classification of the substance (C+/C−); cited from earlier work

| SMILES | Mutagenicity by Ames test [1] | Behavior of gene caused by administration of chemical substance, Gene No. 4846 [2] | Behavior of gene caused by administration of chemical substance, Gene No. 2026 [2] | Behavior of gene caused by administration of chemical substance, Gene No. 4218 [2] | Behavior of gene caused by administration of chemical substance, Gene No. 6182 [2] | Behavior of gene caused by administration of chemical substance, Gene No. 5600 [2] | Behavior of gene caused by administration of chemical substance, Gene No. 1494 [2] | Behavior of gene caused by administration of chemical substance, Gene No. 2045 [2] | Behavior of gene caused by administration of chemical substance, Gene No. 2203 [2] | Behavior of gene caused by administration of chemical substance, Gene No. 533 [2] | Behavior of gene caused by administration of chemical substance, Gene No. 725 [2] | Behavior of gene caused by administration of chemical substance, Gene No. 1163 [2] | Behavior of gene caused by administration of chemical substance, Gene No. 4973 [2] | Behavior of gene caused by administration of chemical substance, Gene No. 4095 [2] | Behavior of gene caused by administration of chemical substance, Gene No. 1334 [2] | Behavior of gene caused by administration of chemical substance, Gene No. 6620 [2] | Behavior of gene caused by administration of chemical substance, Gene No. 6303 [2] | Behavior of gene caused by administration of chemical substance, Gene No. 5878 [2] | Behavior of gene caused by administration of chemical substance, Gene No. 1131 [2] | Behavior of gene caused by administration of chemical substance, Gene No. 1562 [2] | further results |
| --- | --- | --- | --- | --- | --- | --- | --- | --- | --- | --- | --- | --- | --- | --- | --- | --- | --- | --- | --- | --- | --- |
| NC(=O)c1ccccc1C(N)=O [TS073, Phthalamide] | M− | − | − | − | − | − | − | + | − | − | − | − | − | − | − | − | − | − | − | − | Liver carcinogenicity (liver; in vivo): Cr−; Behavior of gene caused by administration of chemical substance, Gene No. 1741 [2]: −; Behavior of gene caused by administration of chemical substance, Gene No. 893 [2]: −; Behavior of gene caused by administration of chemical substance, Gene No. 6026 [2]: −; Behavior of gene caused by administration of chemical substance, Gene No. 154 [2]: −; Behavior of gene caused by administration of chemical substance, Gene No. 1993 [2]: −; Behavior of gene caused by administration of chemical substance, Gene No. 813 [2]: −; Behavior of gene caused by administration of chemical substance, Gene No. 2494 [2]: −; Behavior of gene caused by administration of chemical substance, Gene No. 2546 [2]: −; Behavior of gene caused by administration of chemical substance, Gene No. 3776 [2]: −; Behavior of gene caused by administration of chemical substance, Gene No. 3929 [2]: −; Behavior of gene caused by administration of chemical substance, Gene No. 1119 [2]: −; Behavior of gene caused by administration of chemical substance, Gene No. 6742 [2]: −; Behavior of gene caused by administration of chemical substance, Gene No. 5634 [2]: −; Behavior of gene caused by administration of chemical substance, Gene No. 5726 [2]: −; Carcinogenicity (rodent): C− |
| O=C1CCCCCN1 [TS074, Caprolactam] | M− | − | − | − | + | − | − | + | − | − | + | − | + | + | − | − | − | − | − | − | Liver carcinogenicity (liver; in vivo): Cr−; Behavior of gene caused by administration of chemical substance, Gene No. 1741 [2]: +; Behavior of gene caused by administration of chemical substance, Gene No. 893 [2]: −; Behavior of gene caused by administration of chemical substance, Gene No. 6026 [2]: −; Behavior of gene caused by administration of chemical substance, Gene No. 154 [2]: −; Behavior of gene caused by administration of chemical substance, Gene No. 1993 [2]: −; Behavior of gene caused by administration of chemical substance, Gene No. 813 [2]: −; Behavior of gene caused by administration of chemical substance, Gene No. 2494 [2]: −; Behavior of gene caused by administration of chemical substance, Gene No. 2546 [2]: −; Behavior of gene caused by administration of chemical substance, Gene No. 3776 [2]: +; Behavior of gene caused by administration of chemical substance, Gene No. 3929 [2]: +; Behavior of gene caused by administration of chemical substance, Gene No. 1119 [2]: −; Behavior of gene caused by administration of chemical substance, Gene No. 6742 [2]: −; Behavior of gene caused by administration of chemical substance, Gene No. 5634 [2]: +; Behavior of gene caused by administration of chemical substance, Gene No. 5726 [2]: −; Carcinogenicity (rodent): C− |
| Cc1ccc(N)cc1Cl [TS080, 3-Chloro-p-toluidine] | M− | + | + | + | + | + | + | − | + | + | + | − | + | + | − | − | − | − | − | − | Liver carcinogenicity (liver; classification of the substance (Cr+/Cr−)): Cr−; Behavior of gene caused by administration of chemical substance, Gene No. 1741 [2]: −; Behavior of gene caused by administration of chemical substance, Gene No. 893 [2]: +; Behavior of gene caused by administration of chemical substance, Gene No. 6026 [2]: −; Behavior of gene caused by administration of chemical substance, Gene No. 154 [2]: +; Behavior of gene caused by administration of chemical substance, Gene No. 1993 [2]: −; Behavior of gene caused by administration of chemical substance, Gene No. 813 [2]: +; Behavior of gene caused by administration of chemical substance, Gene No. 2494 [2]: −; Behavior of gene caused by administration of chemical substance, Gene No. 2546 [2]: +; Behavior of gene caused by administration of chemical substance, Gene No. 3776 [2]: −; Behavior of gene caused by administration of chemical substance, Gene No. 3929 [2]: −; Behavior of gene caused by administration of chemical substance, Gene No. 1119 [2]: −; Behavior of gene caused by administration of chemical substance, Gene No. 6742 [2]: −; Behavior of gene caused by administration of chemical substance, Gene No. 5634 [2]: −; Behavior of gene caused by administration of chemical substance, Gene No. 5726 [2]: +; Carcinogenicity (rodent): C− |
